Results on seven compounds are retold here after patent EP0521435A2, “Method to promote the production of secondary metabolites in plant cell cultures” (B.A.T. Cigarettenfabriken GmbH, priority 1991, dated 1993).

The test system of one data set is Linum hirsutum. Description: Elicitation of lignans. The conditions noted are these: versus control; concentration of elicitor not given. It counts as cell-based. From the text: (§1) Weitere Beispiele sind: Digitalis purpurea: Cardenoloide, die unter dem Einfluß von Jasmonat gegenüber der Kontrolle eine 2-fach gesteigerte Konzentration erreichen; Linum hirsutum: Lignane, die 2,5-fach gesteigert sind; Gossypium herbaceum: Gossipol, 10-fach gesteigert gegenüber der Kontrolle; isolierte Wurzelkulturen von Hyoscyamus alba: Hyoscyamin/Scopolamin: stark parasympatholytische bzw. zentraldämpfende, medizinisch wertvolle Alkaloide, 12-fache Steigerung gegenüber der Kontrolle; Zellkulturen von Colchicum autumnale, die das Gichtmittel Colchicin produzieren, 8-fache Steigerung gegenüber der Kontrolle; Zellkulturen von Cephaelis ipecacuanha, die das arzneilich genutzte Emetin produzieren, das bei Keuchhusten und Bronchialasthma sowie als erbrechungsförderndes Mittel Anwendung findet, 7,5-fache Steigerung gegenüber der Kontrolle; Zellkulturen von Cinchona succirubra bzw. Cinchona ledgeriana, die medizinisch als Antiarhythmikum bzw. als Chemotherapeutikum (Malaria) eingesetzt werden, Steigerung 14-fach; Zellkulturen von Rauwolfia serpentina, die die therapeutisch genutzten Indolalkaloide Reserpin (blutdrucksenkend, sedierend), Serpentin (blutdrucksenkend), Ajmalin (bei Herzrhythmusstörungen), Ajmalicin (Gehirn-durchblutungsfördernd), Yohimbin (durchblutungsfördernd) produzieren.
(§2) B. Glukoseester, Aminosäure- oder andere Kohlenhydrataddukte eingesetzt werden.

Data set [1] has as its system Zellkulturen von Cinchona succirubra bzw. Cinchona ledgeriana. Description: Elicitation of secondary metabolites in Cinchona cell cultures. The data set is classed as cell-based. The settings on record: product not named in b24 (Chinidin und Chinin according to b23); concentration of elicitor not given. From the text: Beispiele für Sekundärstoffe, die durch das erfindungsgemäße Verfahren produziert werden können, sind: Atropin und Scopolamin, isoliert aus Hyoscyamus- und Datura-Wurzelkulturen, Colchicin aus Herbstzeitlose, Emetin aus Zell- und Wurzelkulturen der Brechwurz, Codein und Morphin aus Zellkulturen des Schlafmohns, Chinidin und Chinin aus Zellkulturen von Cinchona succirubra bzw. Cinchona ledgeriana, Ajmalin, Rescinamin, Reserpin aus Zellkulturen von Rauwolfia-Arten. Diese Substanzen werden arzneilich eingesetzt. Insbesondere sind also die Stoffgruppen der Indolalkaloide, der Isochinolinalkaloide, der Lignane und Isoprenoide zu nennen. […]

Data set [2] has as its system isolierte Wurzelkulturen von Hyoscyamus alba. It counts as cell-based. The conditions noted are these: isolated root cultures; concentration of elicitor not given.
Text: as §1, §2

For a further data set, the system named is Gossypium herbaceum. The data set is classed as cell-based. The conditions noted are these: concentration of elicitor not given.
Text: as §1, §2

Data set [3] deals with Zellkulturen von Cephaelis ipecacuanha. It counts as cell-based. The settings on record: concentration of elicitor not given.
Text: as §1, §2

The subject of data set [4] is Zellkulturen von Colchicum autumnale. The data set is classed as cell-based. The settings on record: concentration of elicitor not given.
Text: as §1, §2

For a further data set, the system named is Digitalis purpurea. It counts as cell-based. The settings on record: concentration of elicitor not given.
Text: as §1, §2

Data set [5] concerns Kultur von Rubia tinctorum. Description: Elicitation of anthraquinones (alizarin) in cell culture. It counts as cell-based. The settings on record: added after 4 days, harvested after 7 days; concentration not given.
Text: as §2
Eine Kultur von Rubia tinctorum wird in LS-Medium kultiviert. Nach 4 Tagen werden der Kultur 2',3'-Dihydrojasmonat zugesetzt. Nach 7 Tagen wird die Kultur geerntet und der Anthrachinon-Gehalt bestimmt. Der Zuwachs an Alizarin beträgt das ca. 40-fache gegenüber der Kontrolle.

For data set [6], the system named is Kultur von Rauwolfia serpentina. Description: Elicitation of vallesiachotamine in cell culture. The settings on record: 200 umol/1, cultivated 4 further days. It counts as cell-based. The protocol:
as §2
Eine Kultur von Rauwolfia serpentina, in LS-Medium 3 Tage gewachsen, wird zu einer Endkonzentration von 200 umol/1 mit Jasmonsäure versetzt und 4 Tage weiterkultiviert. Der methanolische Extrakt des Gewebes enthält eine 8-fache Vallesiacotamin-Konzentration gegenüber der Kontrolle. Der Absolutwert ist 70 mg/I Medium.

Data set [7] deals with Zellkultur von Lactuca sativa. Description: Elicitation of lettucenin A in cell culture. It counts as cell-based. The settings on record: 250 µmol/l; extraction 6 days later; not detectable in control culture. On the procedure: as §2
Eine Zellkultur von Lactuca sativa wird 24 Stunden nach dem Überimpfen in LS-Medium mit 3-Hydroxyjasmonsäure zu einer Endkonzentration von 250 µmol/l versetzt. Die Extraktion mit Methanol erfolgt 6 Tage später. Die elicitierten Kulturen enthalten das Custonolid Lettucenin A in einer Konzentration von ca. 30 mg/I. In den Extrakten einer Kontrollkultur ist Lettucenin A nicht nachweisbar.

For data set [8], the system named is Zellsuspensionskultur von Eschscholtzia californica. The data set can be described thus: cells. The settings on record: 120 h, read-out: Steigerung der Benzophenanthridin-Produktion.
Text: (§3) Die Zellkultur wird in Flüssigmedium kultiviert und kann entweder in entsprechenden Kulturgefäßen oder in Fermentern herangezogen werden. Nach einer Anwachsphase von 2 bis 10 Tagen wird dem Medium eine in Ethanol gelöste Verbindung der Formel (I) zugesetzt. […] Nach Bildung der maximalen Konzentration an Sekundärstoffen wird der Versuch durch Separierung der Zellen vom Medium abgebrochen und die Sekundärstoffe werden anschließend nach bekannten Verfahren aus dem Zellüberstand oder den Zellen isoliert.
(§4) Einer Zellsuspensionskultur von Eschscholtzia californica, die in 1 Liter LS-Nährmedium (Linsmaier, E. M., Skoog, F., Physiol. Plant 18, 100 (1965)) herangewachsen ist und deren Frischgewicht 200 g beträgt, wird Methyljasmonat zu einer Endkonzentration von 20 umol/1 zugesetzt. Die Kultur wird für 5 Tage weiterkultiviert, anschließend mit 200 ml salzsaurem Ethanol (1,7 ml HCI konz./1 I Ethanol) 2 Stunden lang bei 60 ° C extrahiert.
The test system of a further data set is Kultur von Glycine max. Description: cells. The settings on record: 144 h, read-out: höhere Konzentration an Daidcein- und Genistein-Glycosiden.
The test system of data set [9] is Zellsuspensionskultur von Eschscholtzia californica. The conditions noted are these: 20 umol/1; cultivated 5 further days; per litre culture medium.
Text: as §3, §4
The subject of the next data set is Berberinbrückenenzym. Description: mRNA hybridisation with a probe against the berberine bridge enzyme after elicitation. It counts as cell-based, Eschscholtzia californica. The settings on record: elicited as in Beispiel 1. The text has this: Zellkulturen von Eschscholtzia californica werden - wie in Beispiel 1 beschrieben - mit Methyljasmonat elicitiert. Nach Zugabe des Jasmonats werden im Abstand von je 1 Stunde Aliquots entnommen und die m-RNA extrahiert. Die m-RNA wird mit einer Probe gegen das Berberinbrückenenzym, ein Schlüsselenzym des Benzophenanthridin-Stoffwechsels, hybridisiert. […] Die so induzierte m-RNA ist ein Indiz für die Genaktivierung der an der Elicitierung und an der Alkaloidbiosynthese beteiligten Enzyme. Die Verbindungen der Formel (I) sind demnach in der Lage, reprimierte Sekundärstoffgene zu aktivieren.

The subject of data set [10] is Kultur von Ruta chalepensis. Description: Elicitation of rutacridone in cell culture. The settings on record: 40 µmol/l; cultivated 5 further days; methanol extract. The data set is classed as cell-based.
Text: as §2
Eine 2 Tage alte Kultur von Ruta chalepensis (4x-Medium) wird mit Jasmonatglukosid zu einer Endkonzentration von 40 µmol/l versetzt, für 5 Tage weiterkultiviert und mit Methanol extrahiert. Der Extrakt zeigt einen 18-fachen Rutacridon-Gehalt gegenüber der Kontrolle.

Data set [11] deals with Rauwolfia canescens Zellkultur. Description: Induction of new indole alkaloids in cell culture. It counts as cell-based. The conditions noted are these: 200 µmol/l; cultivated 6 further days; number of new alkaloids.
Text: as §2
Einer 4 Tage alten Rauwolfia canescens Zellkultur (LS-Medium) wird 3-Hydroxyjasmonat zu einer Endkonzentration von 200 µmol/l zugesetzt. Die Kultur wird 6 Tage weiterkultiviert und mit einer entsprechenden Kontrolle, der kein 3-Hydroxyjasmonat zugesetzt wurde, verglichen. Dabei zeigt sich, daß in dieser Zellkultur 6 Indolalkaloide gebildet werden, die in der Kontrollkultur nicht vorkommen.

Procedure for Kultur von Glycine max: Die Zellkultur wird in Flüssigmedium kultiviert und kann entweder in entsprechenden Kulturgefäßen oder in Fermentern herangezogen werden. Nach einer Anwachsphase von 2 bis 10 Tagen wird dem Medium eine in Ethanol gelöste Verbindung der Formel (I) zugesetzt.
Eine Kultur von Glycine max wird mit 330 g Frischgewicht in 1 Liter 4x-Medium (Gamborg, Miller, Ojima, Experiment Research 50, 151 - 158 (1968)), 2,4-D 2 mg/I, NES 0,5 mg/I, IES 0,5 mg/I, Kinetin 0,2 mg/I versetzt. 3 Tage später wird Methyljasmonat zu einer Endkonzentration von 250 umol/1 zugesetzt. Nach einer Kultivierungsperiode von 6 Tagen wird die Kultur mit Methanol extrahiert (50 g Frischgewicht/200 ml Methanol; 2 Stunden, 60 ° C).

Turning to `CC/C=C\C[C@H]1C(=O)CC[C@@H]1CC(=O)O` [Jasmonat], the Lignane gesteigert in the data set on Linum hirsutum was 2,5 -fach. Besides, the Steigerung in data set [1] was 14 -fach. Further, the “Hyoscyamin/Scopolamin Steigerung gegenüber der Kontrolle” value in [2] is recorded as 12 -fach. Moreover, in the data set on Gossypium herbaceum, the “Gossipol gesteigert gegenüber der Kontrolle” value was 10 -fach. In addition, in [3], the “Emetin Steigerung gegenüber der Kontrolle” value is on record as 7,5 -fach. In data set [4], the “Colchicin Steigerung gegenüber der Kontrolle” value is recorded as 8 -fach. Also, in the data set with Digitalis purpurea, the “Cardenoloide, gesteigerte Konzentration gegenüber der Kontrolle” value is on record as 2 -fach.

2',3'-Dihydrojasmonat: the “Zuwachs an Alizarin gegenüber der Kontrolle” value in data set [5] is listed as “ca. 40 -fach”.

Consider `CCC=CCC1C(=O)CCC1CC(=O)O` (stereo not drawn) [Jasmonsäure], for which the “Vallesiacotamin-Konzentration, Absolutwert” value in data set [6] turned out to be 70 mg/I Medium. Further, the fold induction at 200 µM in [6] (Rauvolfia serpentina, 96 h, methanolic extract of the tissue, read-out: Vallesiacotamin-Konzentration gegenüber der Kontrolle) came out at 8.

For 3-Hydroxyjasmonsäure, the “Lettucenin A Konzentration” value in [7] is on record as “ca. 30 mg/I”.

As to `CCC=CCC1C(=O)CCC1CC(=O)OC` (stereo not drawn) [Methyljasmonat], the fold induction at 20 µM in data set [8] is 15. Besides, the fold induction at 250 µM in the data set on Kultur von Glycine max is approximately 30. In data set [9], the “Gesamtausbeute der Kultur, Benzophenanthridine pro Liter Kulturmedium” value amounted to 300 mg. Besides, the “spezifische m-RNA-Menge” value with Berberinbrückenenzym (in 2 hours after addition, versus control culture) is “verdoppelt”; in the data set with Berberinbrückenenzym (in 10 hours after addition, then decreases again), “weiter ansteigt”.

As for Jasmonatglukosid, the “Rutacridon-Gehalt gegenüber der Kontrolle” value in data set [10] is recorded as 18 -fach.

Take 3-Hydroxyjasmonat: the “Indolalkaloide gebildet, die in der Kontrollkultur nicht vorkommen” value in data set [11] stood at 6.
